Assay results published in patent US12697343B2, “Intravenous istaroxime for the treatment of acute heart failure” (Seismic Pharmaceuticals Operations LLC, priority 2021, dated 2026).
Structures can show the parent of a compound that is named as a salt.

Assays:
[1] = test system: patients hospitalized for acute heart failure (AHF); conditions: 1.0 μg/kg/min group; Carubelli et al.; cited from earlier work
[2] = test system: patients hospitalized for acute heart failure (AHF); assay: Diuresis over 24 h during and after study drug infusion; assay type: in vivo, human
Description: This study was a phase II, multicenter, randomized, double-blind, placebo-controlled, parallel group investigation, conducted at two sites in Italy and eight sites in China. All patients provided written informed consent. The study was approved by country regulatory authorities and by local institutional review boards. The trial is registered in the European Clinical Trials Database (EudraCT 2013-000540-26) and ClinicalTrials.gov (NCT02617446).
Patients were randomized 2:1 to istaroxime or placebo 24 h infusion and were enrolled in two sequential cohorts, the first with an istaroxime dose of 0.5 μg/kg/min and the second with an istaroxime dose of 1.0 μg/kg/min. At the end of cohort 1 enrollment, an independent Data Safety and Monitoring Board conducted an interim safety analysis of unblinded data before proceeding to cohort 2 enrollment. Inclusion criteria were: age ≥18 years, an ongoing hospitalization for AHF with dyspnoea at rest or minimal exertion and need for intravenous diuretic therapy (40 mg intravenous furosemide), SBP between 90 and 125 mmHg without signs or symptoms of peripheral hypoperfusion: LVEF ≤40%: intermediate to high E/e′ ratio by tissue Doppler echocardiography (10); brain natriuretic peptide (BNP) or N-terminal pro BNP (NT-proBNP) plasma levels ≥350 pg/mL or ≥1400 pg/mL, respectively, and presence of adequate echocardiographic windows. The main exclusion criteria were: concomitant or planned treatment with intravenous vasodilators, inotropes or vasopressors: treatment with oral digoxin (patients treated with digoxin within the last week could be randomized if the plasma concentration at screening was 0.5 ng/mL); acute coronary syndrome or stroke within the past 3 months: coronary artery bypass graft or percutaneous coronary intervention within the past month or planned in the next month: resting HR >120 bpm or <50 bpm: life-threatening ventricular arrhythmia or implantable cardioverter-defibrillator shock within the past month: fever 38° C.; serum creatinine 3.0 mg/dL or estimated glomerular filtration rate (eGFR) 30 mL/min/m2; serum potassium 5.3 mmol/L or 3.8 mmol/L; severe hepatic dysfunction.
The study design included a 24 h screening period, a 24 h study drug infusion phase (day 1), a post-treatment phase (days 2-4), and a follow-up visit at day 30 (FIG. 5). Patients could be enrolled at any time after admission. The use of oral medications was permitted during the study with the exception of digoxin. Intravenous diuretics were permitted during the treatment period at stable doses, unless changes were required due to clinically relevant variations of the patient's condition. If treatment with an inotrope was clinically necessary during the infusion period, the investigational product was discontinued. Echocardiography was performed according to international standards at screening, baseline (just before starting study drug infusion), 6, 24 h (just before infusion end), and 48 h after infusion start. Echocardiographic measurements at baseline, 6, 24, and 48 h were evaluated in a blinded fashion by a CoreLab located at the University and Civil Hospital of Brescia, Italy. E/e′ ratio was calculated as the ratio between the peak early diastolic mitral flow velocity (E wave) and the mean of the annular lateral (e′ lateral) and septal (e′ septal) velocities, according to standard guidelines.^20 Intraobserver and interobserver variability in E/e′ measurement was tested on the 15% of the recordings and is shown in FIG. 6. Self-reported dyspnoea was assessed using a 100 mm VAS, with zero representing the worst level of dyspnoea and 10 the best breathing condition. Twenty-four hour ECG monitoring was performed using a three-lead device (Mortara industries, Milwaukee, WI, USA) during the day of screening, the infusion period, and the day after (the latter was optional). Analysis was conducted by a blinded CoreLab (ICS Maugeri, Italy). […]

C[C@]12CCC(=NOCCN)C[C@@H]1C(=O)C[C@@H]1[C@@H]2CC[C@]2(C)C(=O)CC[C@@H]12 [Istaroxime, (E,Z)-3-((2-aminoethoxy)imino)androstane-6,17-dione hydrochloride]
Serious adverse events, percent [1]: 15% | Diuresis, median ([2]; 0.5 μg/kg/min, 0-24 h): 2700 mL | Diuresis, median ([2]; 0.5 μg/kg/min, 24-48 h): 1800 mL | Diuresis, median ([2]; 0.5 μg/kg/min, 48-72 h): 1650 mL | Diuresis, median ([2]; 1.0 μg/kg/min, 0-24 h): 1975 mL | Diuresis, median ([2]; 1.0 μg/kg/min, 24-48 h): 1260 mL | Diuresis, median ([2]; 1.0 μg/kg/min, 48-72 h): 1350 mL | Overall diuresis during the 24 h infusion ([2]; compared to placebo): numerically higher
